ChEMBL document CHEMBL5380809, “Discovery of Novel N-Hydroxy-1,2,4-oxadiazole-5-formamides as ASM Direct Inhibitors for the Treatment of Atherosclerosis” (J Med Chem, 2023)
pIC50: −log10 of the molar value. Activity calls are given as the source filed them. The rule behind the calls is not given here.

How the values were obtained:
[1] = biological target: T1, Sphingomyelin phosphodiesterase (Homo sapiens) (UniProt P17405); experiment: Inhibition of recombinant human aSMase (62 to 628 residues) using HMU-PC as substrate at 25 uM incubated for 2 hrs by fluorescence based assay relative to control
T1 sequence (whole entry): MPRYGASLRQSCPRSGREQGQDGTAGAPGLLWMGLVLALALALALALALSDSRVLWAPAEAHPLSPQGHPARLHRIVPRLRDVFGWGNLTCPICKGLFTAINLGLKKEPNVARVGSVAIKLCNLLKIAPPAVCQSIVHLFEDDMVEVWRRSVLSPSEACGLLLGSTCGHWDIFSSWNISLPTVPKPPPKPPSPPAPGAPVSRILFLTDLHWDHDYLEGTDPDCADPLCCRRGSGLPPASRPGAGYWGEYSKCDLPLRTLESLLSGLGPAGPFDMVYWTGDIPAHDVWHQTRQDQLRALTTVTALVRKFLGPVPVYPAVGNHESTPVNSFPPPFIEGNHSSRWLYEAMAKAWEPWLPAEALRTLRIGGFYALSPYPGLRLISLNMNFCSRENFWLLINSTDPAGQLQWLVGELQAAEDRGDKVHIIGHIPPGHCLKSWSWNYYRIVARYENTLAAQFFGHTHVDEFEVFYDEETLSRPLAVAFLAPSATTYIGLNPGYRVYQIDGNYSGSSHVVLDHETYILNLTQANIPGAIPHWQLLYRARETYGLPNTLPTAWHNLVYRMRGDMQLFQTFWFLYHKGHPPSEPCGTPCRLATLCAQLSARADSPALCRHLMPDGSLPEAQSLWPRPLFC

[2] = tested on: Mus musculus; experiment: Antiatherosclerotic activity in high-fat diet fed ApoE-/- mouse assessed as reduction in plasma total cholesterol level at 20 mg/kg measured after 8 weeks; format: functional, organism-based
[3] = tested on: Mus musculus; experiment: Antiatherosclerotic activity in high-fat diet fed ApoE-/- mouse assessed as reduction in aortic arch lipid accumulation at 20 mg/kg measured after 8 weeks; format: functional, organism-based
[4] = tested on: Mus musculus; experiment: Antiatherosclerotic activity in high-fat diet fed ApoE-/- mouse assessed as reduction in plasma LDL-C level at 20 mg/kg measured after 8 weeks; format: functional, organism-based
[5] = tested on: Mus musculus; experiment: Antiatherosclerotic activity in high-fat diet fed ApoE-/- mouse assessed as reduction in plasma total triacylglycerol level at 20 mg/kg measured after 8 weeks; format: functional, organism-based
[6] = tested on: Mus musculus; experiment: Antiatherosclerotic activity in high-fat diet fed ApoE-/- mouse assessed as reduction in plasma Ox-LDL-C level at 20 mg/kg measured after 8 weeks; format: functional, organism-based
[7] = biological target: T2, Sphingomyelin phosphodiesterase (Homo sapiens, UniProt P17405); experiment: Inhibition of recombinant human aSMase (62 to 628 residues) using HMU-PC as substrate incubated for 2 hrs by fluorescence based assay
T2 sequence (P17405 whole entry): T1 sequence (whole entry)

[8] = tested on: HUVEC; experiment: Cytotoxicity against HUVEC cells assessed as cell growth inhibition at 0.5 to 20 uM incubated for 24 to 48 hrs by MTT assay; format: toxicity, cell-based; details: human, dose lower 0.5 µM, time lower 24 hrs, dose upper 20 µM, time upper 48 hrs
[9] = biological target: T1, Sphingomyelin phosphodiesterase (Homo sapiens); experiment: Inhibition of recombinant human aSMase (62 to 628 residues) using HMU-PC as substrate at 50 uM incubated for 2 hrs by fluorescence based assay
[10] = Cytotoxicity against HUVEC cells assessed as cell growth inhibition incubated for 48 hrs by MTT assay; format: toxicity, cell-based; details: human
[11] = Cytotoxicity against HUVEC cells assessed as cell growth inhibition incubated for 24 hrs by MTT assay; format: toxicity, cell-based; details: human
[12] = biological target: T1, Sphingomyelin phosphodiesterase (Homo sapiens); experiment: Inhibition of recombinant human aSMase (62 to 628 residues) using HMU-PC as substrate at 50 uM incubated for 2 hrs by fluorescence based assay relative to control
[13] = Inhibition of rat brain aSMase using HMU-PC as substrate incubated for 3 hrs by fluorescence based assay; format: tissue-based

O=C(NO)c1nnc(-c2ccc(OCc3ccccc3)cc2)o1
inhibition [1]: 3%

CCC(C)(C)C(=O)O[C@H]1C[C@@H](C)C=C2C=C[C@H](C)[C@H](CC[C@@H]3C[C@@H](O)CC(=O)O3)[C@H]21
Activity [2]: Active
Activity [3]: Active
Activity [4]: Active
Activity [5]: Active
Activity [6]: inactive

O=C(NO)c1noc(COc2ccc(-c3ccccc3)cc2)n1
pIC50 [7]: 5.31

CC(C)COc1ccc(-c2nnc(C(=O)NO)o2)cc1
pIC50 [7]: 6.09
Activity [8]: Non-Toxic

O=C(NO)c1nnc(-c2ccc(-c3ccc(Cl)cc3)cc2)o1
pIC50 [7]: 6.29

O=C(NO)c1noc(-c2ccc(Br)cc2)n1
pIC50 [7]: 4.43

O=C(Cc1nc(-c2ccc(COc3ccc(Br)cc3)cc2)no1)NO
inhibition [9]: inactive

O=C(NO)c1nc(-c2ccc(COc3ccc(Cl)cc3)cc2)no1
pIC50 [7]: 5.38

CCCCOc1ccc(-c2cc(C(=O)NO)no2)cc1
pIC50 [7]: 6.00

O=C(NO)c1nc(-c2ccc(COc3ccc(C(F)(F)F)cc3)cc2)no1
IC50 at 48 h [10]: 84.3 µM
IC50 at 24 h [11]: 79.1 µM
pIC50 [7]: 5.09

O=C(NO)c1nc(-c2ccc(COc3ccccc3)cc2)no1
pIC50 [7]: 5.48

O=C(NO)c1nc(-c2ccc(COc3ccccc3Cl)cc2)no1
inhibition [9]: inactive

O=C(Cc1noc(COc2ccc(-c3ccccc3)cc2)n1)NO
inhibition [12]: < 50%
pIC50 [7]: < 4.30

O=C(NO)c1nc(-c2ccc(COc3cccc(Cl)c3)cc2)no1
pIC50 [7]: 5.08

COc1cc(-c2nnc(C(=O)NO)o2)ccc1OCc1ccccc1
inhibition [1]: 60%

O=C(Cc1nc(-c2ccc(COc3ccccc3)cc2)no1)NO
inhibition [9]: inactive

O=C(Cc1noc(-c2ccc(Br)cc2)n1)NO
inhibition [12]: < 50%
pIC50 [7]: < 4.30

O=C(NO)c1nc(COc2ccc(-c3ccc(Cl)cc3)cc2)no1
pIC50 [7]: 6.33

O=C(NO)c1nc(-c2ccc(CNc3ccc(C(F)(F)F)cc3)cc2)no1
inhibition [9]: inactive

O=C(Cc1noc(-c2ccc(-c3ccc(Cl)cc3)cc2)n1)NO
inhibition [12]: < 50%
pIC50 [7]: < 4.30

O=C(NO)c1cc(-c2ccc(OCc3ccccc3)cc2)on1
pIC50 [7]: 5.10

O=C(CCCOc1ccc(-c2ccc(Cl)cc2)cc1)NO
inhibition [9]: inactive

O=C(NO)c1nc(COc2ccc(-c3ccccc3)cc2)no1
pIC50 [7]: 6.08

CC(C)COc1ccc(-c2cc(C(=O)NO)no2)cc1
pIC50 [7]: 5.17

O=C(NO)c1cc(-c2ccc(-c3ccc(Cl)cc3)cc2)on1
inhibition [12]: < 50%
pIC50 [7]: < 4.30

O=C(NO)c1nc(-c2ccc(CNc3ccc(Cl)cc3)cc2)no1
inhibition [9]: inactive

O=C(Cc1noc(COc2ccc(-c3ccc(Cl)cc3)cc2)n1)NO
pIC50 [7]: 4.73

CCCCOc1ccc(-c2nnc(C(=O)NO)o2)cc1
inhibition [9]: inactive
inhibition [1]: 13%

CCCCOc1ccc(-c2nnc(C(=O)NO)o2)cc1OC
inhibition [1]: 57%

COc1c(O)cc2oc3cc(O)c(CC=C(C)C)c(O)c3c(=O)c2c1CC=C(C)C [MANGOSTIN]
pIC50 [13]: 4.85

COc1cc(-c2nnc(C(=O)NO)o2)ccc1OCC(C)C
inhibition [1]: 55%

O=C(CCCOc1ccc(-c2cccnc2)cc1)NO
inhibition [9]: inactive
